In patent publication US20090118350A1, “Biomarkers for Identifying Efficacy of Tegaserod in Patients with Chronic Constipation” (priority 2005, published 2009):

Tested on: patients with chronic constipation
Assay: Clinical trial, primary efficacy: mean increase of 1 or more CSBM/week over baseline after 4 weeks of treatment (responders), by subgroup and genotype
Format: in vivo, human
Details: for % Responders: 6-mg bid
Procedure: Introduction. A clinical trial was performed to evaluate the efficacy of tegaserod (Zelmac®/Zelnorm™) at 6 mg bid (12 mg/day) or 2 mg bid (4 mg/day) vs. placebo by measuring the number of complete spontaneous bowel movements (CSBM) during the first 4 weeks of treatment. Secondary objectives included evaluating the number of CSBM during the entire 12-week treatment period, bowel habits, laxative use, and safety and tolerability issues. The clinical trial design consisted of a 2-week baseline period without medication, a 12-week, randomized, double-blind, placebo-controlled treatment period, and a 4-week withdrawal period without study medication. As part of the clinical trial, DNA was collected from patients at screening for pharmacogenetic analysis to evaluate genetic polymorphisms relating to drug targets and disease aetiology.
Samples. A total 1348 patients were randomized as the intent-to-treat (ITT) population. Blood samples from these patients were collected at the time of patient screening and DNA was extracted using the PUREGENE™ DNA Isolation Kit (D-50K). Of these, samples from 738 randomized patients had good quality genotype data for at least half of the 55 SNPs evaluated.
Clinical assessments. […] The primary efficacy endpoint evaluated was the increase of 1 or more CSBM/week over baseline after 4 weeks of treatment. A secondary endpoint evaluated in this genotyping study was RESP12, the increase of 1 of more CSBM/week over baseline after 12 weeks of treatment. Patients were classified as responders if they met these criteria and had completed at least 7 days of treatment. Additional secondary efficacy assessments were evaluated based on the weekly diary assessments, such as bothersome constipation, bothersome abdominal pain, and satisfaction with bowel habits at the end of the 12-week treatment period (using the baseline value as a co-variant for analysis).
Genotyping. A total of 61 polymorphisms in 23 candidate genes were selected for analysis. Genotyping was performed using the TaqMan® technology for most of the assays, while a few were performed in-house using the Third Wave Technologies Invader Assay technique (see TABLE 2 for assay IDs for all evaluated SNPs). Of the 61 SNPs genotyped, 55 yielded good quality, polymorphic genotypes for use in further evaluation.
Statistical analysis. Statistical analysis was performed using SAS version 8.2 (The SAS Institute, Cary, N.C., USA). Analysis methods included Fisher's Exact tests, analysis of Covariance (ANCOVA), logistic regression, and Mantel-Haenzel tests to determine odds ratios and 95% confidence intervals, with significance established at p<0.05. Calculation of linkage disequilibrium was performed using the GOLD (graphical overview of linkage disequilibrium) method described by Abecasis & Cookson, Bioinformatics 16: 182-3 (2000).
Demographic comparisons. TABLE 3 presents the demographic breakdown of the patients in the overall clinical study and those included in this genotype analysis. Distributions were similar between the genotype population and the total patient population. […] Based on these findings, it was decided to limit analysis to the Caucasian population, which accounted for nearly 90% of all patients, to prevent a confounding effect of race on subsequent genotype analyses. Furthermore, the analysis was also limited to those intent-to-treat patients that were treated with tegaserod or placebo for at least 7 days (total of 635 patients).
Comparison of overall response rates. TABLE 4 presents the overall response for the primary efficacy endpoint (a mean increase in 1 or more CSBM/week over baseline after 4 weeks) for tegaserod 6-mg bid compared with placebo for both the overall patient population and the subgroup of patients for which we had genotype data (all races and Caucasians only). […]

## [H]/N=C(/NCCCCC)N/N=C/c1c[nH]c2ccc(OC)cc12 [tegaserod, Tegaserod]
4 weeks, All Caucasians (ITT, >=7 days), Age <65, M + F
  % Responders: 46%
4 weeks, All Caucasians (ITT, >=7 days), Age >=65, M + F
  % Responders: 33%
4 weeks, All Caucasians (ITT, >=7 days), Age All, Female
  % Responders: 46%
4 weeks, All Caucasians (ITT, >=7 days), Age All, M + F
  % Responders: 45%
4 weeks, All Caucasians (ITT, >=7 days), Age All, Male
  % Responders: 37%
4 weeks, All genotyped (ITT, >=7 days), Age <65, M + F
  % Responders: 45%
4 weeks, All genotyped (ITT, >=7 days), Age >=65, M + F
  % Responders: 50%
4 weeks, All genotyped (ITT, >=7 days), Age All, Female
  % Responders: 45%
4 weeks, All genotyped (ITT, >=7 days), Age All, M + F
  % Responders: 46%
4 weeks, All genotyped (ITT, >=7 days), Age All, Male
  % Responders: 48%
4 weeks, All patients (ITT, >=7 days), Age <65, M + F
  % Responders: 45%
4 weeks, All patients (ITT, >=7 days), Age >=65, M + F
  % Responders: 35%
4 weeks, All patients (ITT, >=7 days), Age All, Female
  % Responders: 45%
4 weeks, All patients (ITT, >=7 days), Age All, M + F
  % Responders: 44%
4 weeks, All patients (ITT, >=7 days), Age All, Male
  % Responders: 36%
4 weeks, Caucasians genotyped (ITT, >=7 days), Age <65, M + F, all genotypes
  % Responders: 46%
4 weeks, Caucasians genotyped (ITT, >=7 days), Age >=65, M + F, all genotypes
  % Responders: 47%
4 weeks, Caucasians genotyped (ITT, >=7 days), Age All, Female, all genotypes
  % Responders: 45%
4 weeks, Caucasians genotyped (ITT, >=7 days), Age All, M + F, all genotypes
  % Responders: 46%
4 weeks, Caucasians genotyped (ITT, >=7 days), Age All, Male, all genotypes
  % Responders: 52%
4 weeks, ITT Caucasians >=7 days, 0 of 14 SNPs
  % Responders: 32%
4 weeks, ITT Caucasians >=7 days, >=1 of 14 SNPs
  % Responders: 53%
4 weeks, ITT Caucasians >=7 days, AQP3 (PG ID 1838) genotype CC
  % Responders: 43%
4 weeks, ITT Caucasians >=7 days, AQP3 (PG ID 1838) genotype CG
  % Responders: 47%
4 weeks, ITT Caucasians >=7 days, AQP3 (PG ID 1838) genotype GG
  % Responders: 71%
4 weeks, ITT Caucasians >=7 days, Female (All ages), 0 of the 12 SNPs
  % Responders: 33%
4 weeks, ITT Caucasians >=7 days, Female (All ages), 1-12 of the 12 SNPs
  % Responders: 59%
4 weeks, ITT Caucasians >=7 days, HTR3B (PG ID 3755) genotype AA
  % Responders: 46%
4 weeks, ITT Caucasians >=7 days, HTR3B (PG ID 3755) genotype AC
  % Responders: 44%
4 weeks, ITT Caucasians >=7 days, HTR3B (PG ID 3755) genotype CC
  % Responders: 67%
4 weeks, ITT Caucasians >=7 days, HTR4 (PG ID 1746) genotype CC
  % Responders: 42%
4 weeks, ITT Caucasians >=7 days, HTR4 (PG ID 1746) genotype CT
  % Responders: 44%
4 weeks, ITT Caucasians >=7 days, HTR4 (PG ID 1746) genotype TT
  % Responders: 75%
4 weeks, ITT Caucasians >=7 days, HTR4 (PG ID 3743) genotype AA
  % Responders: 43%
4 weeks, ITT Caucasians >=7 days, HTR4 (PG ID 3743) genotype AC
  % Responders: 46%
4 weeks, ITT Caucasians >=7 days, HTR4 (PG ID 3743) genotype CC
  % Responders: 78%
4 weeks, ITT Caucasians >=7 days, HTR4 (PG ID 3747) genotype AA
  % Responders: 43%
4 weeks, ITT Caucasians >=7 days, HTR4 (PG ID 3747) genotype AT
  % Responders: 45%
4 weeks, ITT Caucasians >=7 days, HTR4 (PG ID 3747) genotype TT
  % Responders: 70%
4 weeks, ITT Caucasians >=7 days, HTR4 (PG ID 3753) genotype CC
  % Responders: 43%
4 weeks, ITT Caucasians >=7 days, HTR4 (PG ID 3753) genotype CT
  % Responders: 44%
4 weeks, ITT Caucasians >=7 days, HTR4 (PG ID 3753) genotype TT
  % Responders: 75%
4 weeks, ITT Caucasians >=7 days, HTR4 (PG ID 3754) genotype AA
  % Responders: 46%
4 weeks, ITT Caucasians >=7 days, HTR4 (PG ID 3754) genotype AT
  % Responders: 42%
4 weeks, ITT Caucasians >=7 days, HTR4 (PG ID 3754) genotype TT
  % Responders: 67%
4 weeks, ITT Caucasians >=7 days, HTR4 (PG ID 3756) genotype AA
  % Responders: 39%
4 weeks, ITT Caucasians >=7 days, HTR4 (PG ID 3756) genotype AC
  % Responders: 46%
4 weeks, ITT Caucasians >=7 days, HTR4 (PG ID 3756) genotype CC
  % Responders: 71%
4 weeks, ITT Caucasians >=7 days, M + F (<65), 0 of the 12 SNPs
  % Responders: 33%
4 weeks, ITT Caucasians >=7 days, M + F (<65), 1-12 of the 12 SNPs
  % Responders: 61%
4 weeks, ITT Caucasians >=7 days, M + F (>=65), 0 of the 12 SNPs
  % Responders: 14%
4 weeks, ITT Caucasians >=7 days, M + F (>=65), 1-12 of the 12 SNPs
  % Responders: 70%
4 weeks, ITT Caucasians >=7 days, M + F (All ages), 0 of the 12 high responder SNPs
  % Responders: 31%
4 weeks, ITT Caucasians >=7 days, M + F (All ages), 1-12 of the 12 high responder SNPs
  % Responders: 62%
4 weeks, ITT Caucasians >=7 days, MLN (PG ID 1783) genotype CC
  % Responders: 47%
4 weeks, ITT Caucasians >=7 days, MLN (PG ID 1783) genotype CT
  % Responders: 40%
4 weeks, ITT Caucasians >=7 days, MLN (PG ID 1783) genotype TT
  % Responders: 63%
4 weeks, ITT Caucasians >=7 days, Male (All ages), 0 of the 12 SNPs
  % Responders: 20%
4 weeks, ITT Caucasians >=7 days, Male (All ages), 1-12 of the 12 SNPs
  % Responders: 82%
4 weeks, ITT Caucasians >=7 days, SCNN1A (PG ID 3806) genotype GG
  % Responders: 62%
4 weeks, ITT Caucasians >=7 days, SCNN1A (PG ID 3806) genotype GT
  % Responders: 47%
4 weeks, ITT Caucasians >=7 days, SCNN1A (PG ID 3806) genotype TT
  % Responders: 36%
4 weeks, ITT Caucasians >=7 days, SLC12A2 (PG ID 1842) genotype AA
  % Responders: 69%
4 weeks, ITT Caucasians >=7 days, SLC12A2 (PG ID 1842) genotype AG
  % Responders: 27%
4 weeks, ITT Caucasians >=7 days, SLC12A2 (PG ID 1842) genotype GG
  % Responders: 51%
4 weeks, ITT Caucasians >=7 days, SLC12A2 (PG ID 3801) genotype CC
  % Responders: 75%
4 weeks, ITT Caucasians >=7 days, SLC12A2 (PG ID 3801) genotype CT
  % Responders: 27%
4 weeks, ITT Caucasians >=7 days, SLC12A2 (PG ID 3801) genotype TT
  % Responders: 52%
4 weeks, ITT Caucasians >=7 days, TPH1 (PG ID 1756) genotype GG
  % Responders: 51%
4 weeks, ITT Caucasians >=7 days, TPH1 (PG ID 1756) genotype GT
  % Responders: 48%
4 weeks, ITT Caucasians >=7 days, TPH1 (PG ID 1756) genotype TT
  % Responders: 36%
4 weeks, ITT Caucasians >=7 days, TPH1 (PG ID 3784) genotype CC
  % Responders: 32%
4 weeks, ITT Caucasians >=7 days, TPH1 (PG ID 3784) genotype CT
  % Responders: 49%
4 weeks, ITT Caucasians >=7 days, TPH1 (PG ID 3784) genotype TT
  % Responders: 50%
Lower dose 2-mg bid, 4 weeks, compared with placebo and with 6-mg bid
  rate of response: the response was less than that seen for the 6-mg bid dose
The two other genotyped SCNN1A SNPs (near 5' end and near 3' end)
  Odds Ratio: > 3.5
